Source: patent US20060014704A1, “Compounds and their preparation for the treatment of Alzheimer's disease by inhibiting beta-amyloid peptide production” (priority 2004, published 2006)
Entries after “also recorded” stand apart in the source; their conditions may differ. Where two headings read alike, the source gives them in different places.

Columns and labels:
[1] = tested on: Aβ40 and Aβ42 production, CHO-APP/PS1 cells; assay: Secreted Aβ ELISA in CHO-APP/PS1 cells (wild-type PS1); format: cell-based, Chinese hamster
Protocol: (§1) The effects of Rg5 on the Aβ42 generation were much smaller as compared to Rgk351 and Rk1.
(§2) FIG. 10 depicts the effects of native ginsenosides on Aβ42 production. CHO cells stably transfected with human APP695 together with either wild-type (A, CHO-APP/PS1 cells) or ΔE9 FAD mutant (B, CHO-APP/ΔE9PS1 cells) forms of PS1 were used. Cells were treated with the indicated compounds (at 50 μM) for 8 hrs. Levels of secreted Aβ40 and Aβ42 in the medium were determined by ELISA and normalized to intracellular full-length APP. In CHO-APP/PS1 cells, average Aβ amounts in control samples were 320 pM for Aβ40 and 79 pM for Aβ42. The relative levels of Aβ and Aβ42 were normalized to values obtained from non-treated and vehicle-treated cells and are shown as % to control+s.d.). One of three representative experiments are shown.
(§3) CHO-APP/PS1 (A) and CHO-APP/ΔE9PS1 (B) cells were treated with the indicated compounds at 50 μM for 8 hrs and the levels of secreted Aβ40 and Aβ42 were determined as described in FIG. 1. […] The PS1-ΔE9 FAD mutation diminished the Aβ42 response to Rk1 treatment (B).

[2] = tested on: Aβ42 production, CHO-APP/ΔE9PS1 cells; assay: Secreted Aβ ELISA in CHO cells co-expressing human APP and FAD mutant PS1 (ΔE9, L286V); format: cell-based, Chinese hamster
Protocol: as §1, §2, §3

[3] = tested on: full-length APP and APP C-terminal fragments, CHO-APP cells; assay: Western blot analysis of APP processing in CHO-APP cells; format: cell-based, Chinese hamster; conditions: cell lysates
Text: FIG. 13. depicts an analysis of APP processing after Rk1 treatment. Steady-state levels of full-length APP and APP C-terminal fragments (APP-CTFs) were examined by Western blot analysis using anti-R1 antibody. […] Correlated Aβ42 levels for each sample are shown in the bottom panel.

[4] = target: T1, γ-secretase cleavage of APP (AICD) (Homo sapiens, UniProt P49768); assay: Cell-free generation of AICD from membrane fractions of 293 cells overexpressing APP; format: biochemical
T1 construct: Membrane fractions isolated from 293 cells overexpressing either APP (A), Notch-AE (B) or p75-AE (C); endogenous in cells; host or cells: 293 cells (membrane fractions); only the substrates APP, Notch-ΔE and p75-ΔE are overexpressed
Protocol: (§4) Membrane fractions isolated from 293 cells overexpressing either APP (A), Notch-AE (B) or p75-AE (C) and incubated in the presence of indicated compounds: Compound E (CpdE, general γ-secretase inhibitor), Rgk351, Rk1 and sulindac sulfide (SS).

[5] = target: T2, γ-secretase cleavage of p75 neurotrophin receptor (p75-ICD) (Homo sapiens, UniProt P49768); assay: Cell-free generation of p75-ICD from membrane fractions of 293 cells overexpressing p75-AE; format: biochemical
T2 construct: Membrane fractions isolated from 293 cells overexpressing either APP (A), Notch-AE (B) or p75-AE (C); endogenous in cells; host or cells: 293 cells (membrane fractions); only the substrates APP, Notch-ΔE and p75-ΔE are overexpressed
Protocol: as §4

[6] = target: γ-secretase (Homo sapiens, UniProt P49768); assay: Cell-free γ-secretase assay (CHAPSO-solubilized membrane fractions, recombinant substrates, Aβ ELISA); format: biochemical
Protocol: (A) CHAPSO-solubilized membrane fractions were incubated with recombinant γ-secretase substrates together with the indicated compounds (at 100 μM) and the levels of Aβ42 and Aβ40 were determined by ELISA as described (27-29). (B) Dose-response of Aβ40 and Aβ42-lowering activity of Rk1 and (20S)Rg3 in a cell-free γ-secretase assay.
Next, the inhibitory effects of Rk1 and (20S)Rg3 on Aβ generation in an in vitro γ-secretase assay was studied. […] In contrast, naproxen, an NSAID without Aβ42-lowering activity, had no effects on Aβ42 production (FIG. 15A).

[7] = tested on: Aβ species, CHO-APP cells; assay: Mass spectrometric analysis of Aβ species produced from CHO-APP cells; format: cell-based, Chinese hamster; conditions: mass spectrometry, vs DMSO
Protocol: Note that treatment leads to a decrease in Aβ42 species (1-42), and elevation in both Aβ37 (1-37) and Aβ38 (1-38). Mass spectrometric analysis of Aβ species were performed as previously described (Wang R, Sweeny D, Gandy S E, Sisodia S S. The profile of soluble amyloid β-protein in cultured cell media. J. Bio. Chem. 1996; 271: 31894-31902).

[8] = tested on: Aβ40 and Aβ42 secretion, primary embryonic cortical neurons; assay: Aβ secretion in primary embryonic cortical neurons derived from Tg2576 transgenic mice; format: cell-based, mouse
Text: Treatment of Rk1 and Rg3 decreased the level of secreted Aβ40 and Aβ42.

[9] = tested on: cell viability; assay: Cell viability of treated cells; format: cell-based; conditions: up to 100 μM, 8 hour treatment
Protocol: as §3
Tables 1-3 Structure of ginsenosides utilized in the study and their effects on Aβ42 generation. They differ at the two or three side chains attached to the common triterpene backbone known as dammarane. The common structure skeleton for each group of ginsenosides is shown in the top panel. Ginsenosides that harbor Aβ42-lowering activity are indicated in the far right column of the tables: Aβ42-lowering activity (“Yes”), no profound effects (“No”), and non-determined (“ND”). Ginsenosides that affected cell viability are indicated as “Cytotoxic.” Abbreviation for carbohydrates are as follows: Glc, D-glucopyranosyl; Ara (pyr), L-arabinopyranosyl; Ara (fur), L-arabinofuranyosyl; Rha, L-rhamnopyranosyl.
Steaming ginseng at high temperature gave rise to additional ginsenosides with enhanced pharmacological activity, including (20S)Rg3, Rk1 and Rg5 (22-25). […] Aβ40 levels were not changed by treatment with any of the ginsenosides tested. The potency of Aβ42-lowering activity was highest with Rk1 and (20S)Rg3. […] These studies provide a structure-activity relationship between the chemical structures of ginsenosides and Aβ42-lowering activity, further providing the basis for designing additional Aβ42-lowering analogues as well as for defining a class of compounds that harbor Aβ42-lowering activity.

[10] = tested on: Aβ42 production in mammalian cells; conditions: Tae-Wan Kim et al., cited from earlier work
[11] = target: γ-secretase complex (Homo sapiens, UniProt P49768); conditions: partially purified γ-secretase complex; cited from earlier work

Aβ generation in a cell-free γ-secretase assay ([6]; FIG. 15): inhibits Aβ generation
IC50 ([6]; cell-free γ-secretase assay, FIG. 15B, read-out: IC50 for Aβ40): 27 ± 3 µM
IC50 ([6]; cell-free γ-secretase assay, FIG. 15B, read-out: IC50 for Aβ42): 32 ± 5 µM
Compound: C=C(CCC=C(C)C)[C@H]1CC[C@]2(C)[C@@H]1[C@H](O)C[C@@H]1[C@@]3(C)CC[C@H](O[C@@H]4O[C@H](CO)[C@@H](O)[C@H](O)[C@H]4O[C@@H]4O[C@H](CO)[C@@H](O)[C@H](O)[C@H]4O)C(C)(C)[C@@H]3CC[C@]12C [Rk1]
potency of Aβ42-reducing activity (rank) ([1]; 50 μM, 8 hrs, FIG. 11): Rk1>/=(20S)Rg3>Rg5>(20R)Rg3; also recorded: highest
Aβ42 levels ([1]; CHO cells co-expressing human APP and wild-type presenilin 1, FIG. 8): reduced the Aβ42 levels
secretion of Aβ42 ([1]; heat-processing derived ginsenosides, 50 μM, 8 hrs, FIG. 11): selectively lowered the secretion of Aβ42
Aβ42-lowering response in PS1 ΔE9 FAD mutant cells compared to PS1 wild-type cells ([2]; 50 μM, 8 hrs, FIG. 11B vs 11A): diminished
Aβ42 levels ([2]; CHO cells co-expressing human APP and FAD mutant presenilin 1 (delta E9, L286V), FIG. 8): reduced the Aβ42 levels
APP C-terminal fragments (γ-secretase substrates), steady-state levels [3]: increased accumulation; also recorded: up-regulated
full-length APP levels [3]: not affected; also recorded: did not affect
cell-free generation of AICD [4]: does not significantly affect; also recorded: not affected
cell-free generation of p75-ICD [5]: does not significantly affect; also recorded: not affected
Aβ42 generation in vitro ([6]; cell-free γ-secretase assay, FIG. 15 (100 μM in A)): inhibit the Aβ42 production; also recorded: potently inhibited
Aβ40 generation in vitro ([6]; cell-free γ-secretase assay, FIG. 15B): inhibited both Aβ40 and Aβ42 with a similar potency
Aβ37 (1-37) [7]: elevation
Aβ38 (1-38) [7]: elevation
Aβ42 species (1-42) [7]: decrease
level of secreted Aβ40 [8]: decreased
level of secreted Aβ42 [8]: decreased
cell viability [9]: not affected
production of Aβ42 in mammalian cells ([10]; patent application pending): lower the production of Aβ42
relative effectiveness in reducing Aβ42 levels [10]: most effective
Aβ42 production in a cell-free assay [11]: inhibit the Aβ42 production
